In patent US12723039B2, “Small molecule inhibitors of SLC15A4 with anti-inflammatory activity” (THE SCRIPPS RESEARCH INSTITUTE, priority 2020, dated 2026):

Assays:
[1] = biological target: T1, human SLC15A4 dileucine mutant (L14A, L15A, L318A, V319A) (Homo sapiens, UniProt Q8N697, L14A/L15A/L318A/V319A); assay: SLC15A4 transport NFκB luciferase reporter assay in A549 cells; format: cell-based; conditions: for suppression of MDP or Tri-DAP induced NFκB luciferase: A549 cells with membrane-trafficked SLC15A4 mutant; for block of MDP transport in a dose-dependent fashion: FIG. 9
T1 construct: expressed in transfected cells
From the text: Development of SLC15A4-Transport Luciferase Reporter Assay. […] The precise substrate scope of endolysosomal SLC15A4 is not established. However, several studies have implicated SLC15A4 to be a transporter of the bacterial-derived peptidoglycans, such as MDP and Tri-DAP, which are ligands of the immune sensors NOD1 and NOD2^27-29, 48. Recently, it has been shown that disruption of the dileucine motifs (DE)-XXXL-(L/I) or DXXLL of SLC15A3^49 and SLC15A4^50 can result in successful targeting to the plasma membrane. Considering that NODs signal through the NFκB pathway, we sought to develop an NFκB reporter assay as a strategy to measure SLC15A4 transport in cells.
Briefly, both wildtype (WT) human SLC15A4 and a dileucine mutant (L14A, LISA, L318A, V319A) were cloned in frame with the mCherry using a (GGGGS)3 linker in the pLPC lentiviral backbone. Lentiviral vectors were packaged in psPAX2 and pMD2.G packing plasmids and used to generate stable cell lines expressing either SLC15A4 WT or membrane-trafficked SLC15A4 mutant A549 cells (FIG. 5A). Stable reporter cells were subsequently generated from these SLC15A4 cell lines using the Promega Dual-Luciferase Reporter system (pGLA4.32 [luc2P/NFκB-RE/Hygro]) containing five copies of an NF-κB response element. We confirmed the production of luciferase upon exposure to MDP or Tri-DAP NOD ligands ([…]), which is suppressed when exposed to either triptolide (an NF[…]B inhibitor, FIG. 5C) ML130 (NOD1 inhibitor, not shown) or GSK717 (NOD2 inhibitor, not shown).

SLC25A20 = biological target: T2, SLC25A20 (Homo sapiens, UniProt O43772); conditions: previously published work (ref. 46); cited from earlier work
T2 construct: endogenous in cells
T2 sequence (O43772 1-301): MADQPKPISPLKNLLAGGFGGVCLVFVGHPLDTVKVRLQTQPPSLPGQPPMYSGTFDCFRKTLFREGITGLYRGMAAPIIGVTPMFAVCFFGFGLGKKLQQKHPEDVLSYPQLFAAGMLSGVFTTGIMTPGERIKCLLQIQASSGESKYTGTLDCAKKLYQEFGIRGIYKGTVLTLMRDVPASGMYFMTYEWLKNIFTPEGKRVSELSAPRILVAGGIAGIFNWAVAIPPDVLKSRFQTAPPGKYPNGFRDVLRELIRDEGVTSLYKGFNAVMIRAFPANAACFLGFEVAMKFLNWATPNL

[2] = tested on: endogenous NOD signaling in human macrophages; assay: Endogenous NOD signaling in human macrophages; format: cell-based; conditions: FIG. 11
[3] = tested on: endogenous NOD signaling in mouse macrophages; assay: Endogenous NOD signaling in mouse macrophages; format: cell-based; conditions: FIG. 11
CpG (TLR9) = assay: In vivo model of inflammation: CpG co-injection, serum cytokines; conditions: mice co-injected with compound and CpG (TLR9), single dose, serum after 6 hr

T1 sequence (Q8N697 whole entry L14A/L15A/L318A/V319A): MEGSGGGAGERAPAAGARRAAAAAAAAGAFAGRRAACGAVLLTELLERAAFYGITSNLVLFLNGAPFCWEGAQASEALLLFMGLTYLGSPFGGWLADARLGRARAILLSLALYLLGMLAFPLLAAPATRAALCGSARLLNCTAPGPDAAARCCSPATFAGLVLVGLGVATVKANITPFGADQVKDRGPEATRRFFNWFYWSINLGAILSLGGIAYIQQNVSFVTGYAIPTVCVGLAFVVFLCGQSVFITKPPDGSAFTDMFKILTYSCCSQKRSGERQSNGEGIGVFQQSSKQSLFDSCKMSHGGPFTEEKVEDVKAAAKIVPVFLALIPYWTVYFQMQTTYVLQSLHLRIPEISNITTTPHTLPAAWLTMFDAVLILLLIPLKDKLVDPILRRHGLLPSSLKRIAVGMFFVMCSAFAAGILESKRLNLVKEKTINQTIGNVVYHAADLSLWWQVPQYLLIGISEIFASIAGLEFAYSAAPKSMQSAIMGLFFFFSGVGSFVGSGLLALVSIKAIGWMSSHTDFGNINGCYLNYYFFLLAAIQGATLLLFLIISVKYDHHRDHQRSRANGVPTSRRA

block of MDP transport in a dose-dependent fashion [1]	Compound	in vivo efficacy: serum cytokines after CpG (CpG (TLR9))	further results
–	CC(C)[C@]12O[C@H]1[C@@H]1O[C@]13[C@]1(O[C@H]1C[C@H]1C4=C(CC[C@@]13C)C(=O)OC4)[C@@H]2O [triptolide, reference compound]	–	suppression of MDP or Tri-DAP induced NFκB luciferase [1]: suppressed
–	C#CCCC1(CCC(=O)Nc2ccc3oc(=O)ccc3c2)N=N1 [FFF 3]	–	engagement of SLC25A20 (SLC25A20): highly engages
active	CCn1c2ccccc2c2cc(CNc3nc4ccccc4n3C)ccc21 [AJ2-30, N-((9-ethyl-9H-carbazol-3-yl)methyl)-1-methyl-1H-benzo[d]imidazol-2-amine]	active	block of endogenous NOD signaling in human macrophages [2]: active; block of endogenous NOD signaling in mouse macrophages [3]: active
–	Cc1ccc(S(=O)(=O)n2c(N)nc3ccccc32)cc1 [ML130, reference compound]	–	suppression of MDP or Tri-DAP induced NFκB luciferase [1]: suppressed
inactive controls	CCCC(=O)N(Cc1ccc2[nH]ccc2c1)C1Cc2ccccc2NC1=O (stereo not drawn) [AJ2-18, N-((1H-indol-5-yl)methyl)-N-(2-oxo-1,2,3,4-tetrahydroquinolin-3-yl)butyramide]	–	–
–	CCCC(=O)n1c(NCc2c[nH]c3ccc(Br)cc23)nc2ccccc21 [AJ2-3, 1-(2-(((5-bromo-1H-indol-3-yl)methyl)amino)-1H-benzo[d]imidazol-1-yl)butan-1-one]	active	–
inactive controls	CCCC(=O)N(Cc1ccc2[nH]ccc2c1)C1Cc2ccccc2C1 [AJ2-22, N-((1H-indol-5-yl)methyl)-N-(2,3-dihydro-1H-inden-2-yl)butyramide]	inactive control	–
active	Brc1ccc2[nH]cc(CNc3nc4ccccc4[nH]3)c2c1 [AJ2-3A, N-((5-bromo-1H-indol-3-yl)methyl)-1H-benzo[d]imidazol-2-amine]	–	–
